Measurements from paper PMC12716005, “Design, Synthesis, and Molecular Docking of Triazole‐Coumarin Hybrids as Potent Breast Cancer Inhibitors Targeting Cell Cycle and Apoptosis” (Chemistry & Biodiversity, 2025).

Tests used:
[1] = system: MCF‐7 breast cancer cells; assay: MTT cell viability assay, MCF-7; format: cell-based, human; details: for IC50: MTT, 72 h
Description: (§1) Human cell lines, breast cancer MCF‐7 and MDA‐MB‐231, along with the human breast epithelial cell line (MCF‐10A), were purchased from ATCC (Rockville, USA). The necessary supplies, including fetal bovine serum (FBS), RPMI 1640 medium, 3‐(4,5‐dimethylthiazol‐2‐yl)‐2,5‐diphenyltetrazolium bromide (MTT), and DMSO, were provided by Merck (Darmstadt, Germany). The cells were maintained at 37°C in a CO2─enriched chamber, utilizing RPMI 1640 medium fortified with 10% FBS and 100 U/mL of penicillin/streptomycin [30].
(§2) Cell survival was evaluated using the MTT technique, which measures cellular redox activity. In metabolically active cells, MTT (3‐(4,5‐dimethylthiazol‐2‐yl)) is reduced to form an insoluble purple formazan. This formazan was solubilized, and its concentration was quantified by measuring optical density. MTT, sourced as a powder from Sigma, was made with phosphate‐buffered saline (PBS) in a 5 mM standard solution. The density at which cells were propagated was 10⁴ cells per well in 96‐well plates. Triazole‐coumarin hybrids were dissolved in DMSO, and varying concentrations (0.1–200 µM) of these derivatives were applied to the cells. Following treatment for 24, 48, and 72 h, 20 µL of the MTT mix was applied to each well, and the wells were then incubated for 4 h at thirty‐seven degrees in a CO2 incubator. After incubating, the formazan crystals were dissolved by adding 200 µL of DMSO after the MTT mixture was withdrawn. The absorption rate was recorded at 590 nm utilizing a Tecan spectrophotometer. Cisplatin served as the reference drug. […] To determine the selective toxicity of the triazole‐coumarin hybrids against breast cancer cells, the formula was used to compute the SI = IC50 for normal cells/IC50 for cancer cells.

[2] = system: MDA‐MB‐231 breast cancer cells; assay: MTT cell viability assay, MDA-MB-231; format: cell-based, human; details: for IC50: MTT, 72 h
Description: as §1, §2

[3] = system: MCF‐10A human breast epithelial cells; assay: MTT cell viability assay, MCF-10A; format: cell-based; details: 72 h, non-tumorigenic cells
Description: as §1, §2

MCF‐7 = system: MCF‐7; set-up: method as in PMID 30556027; details: literature ref 28; cited from earlier work
Bax mRNA [4] = assay: qRT-PCR Bax mRNA in MDA-MB-231; format: cell-based, human; details: MDA-MB-231, IC50 value of 5f, 72 h
Description: (§3) To figure out the mRNA levels of apoptosis‐related proteins B‐cell lymphoma 2 (Bcl─2), Bcl─2‐associated X protein (Bax), cyclin‐dependent kinase 2 (CDK2), and Cyclin E, total mRNA was extracted from cells treated with compound 5f using Trizol reagent (Sigma). Complementary DNA (cDNA) synthesis was conducted from total mRNA using a Qiagen cDNA synthesis kit as described by the manufacturer. The primers listed below (350 nM concentration) were utilized: Bcl─2; forward ([…]); reverse ([…]), Bax; forward ([…]); reverse ([…]), CDK2; forward ([…]); reverse (TGGCTGAAATCCGCTTGTT), Cyclin E; forward ([…]); reverse ([…]), human GAPDH; forward ([…]); reverse (AGATGGTGATGGGCTTCCC). The PCR reaction mixture consisted of 1X buffer, 0.2 mM dNTPs, 1.6 mM MgCl2, 50 pmol of primer sets, cDNA, and 0.25 U of Taq polymerase. The thermal cycling conditions included an initial denaturation at 95°C for 60 s, followed by 50 cycles comprising 15 s of denaturation at 95°C, 15 s of annealing at 60°C, and 60 s of extension at 72°C. The median CT value of GAPDH, the naturally present housekeeping gene, was utilized to normalize the cycle threshold (CT) values. Levels of compared transcription were established using the comparative ^ΔΔCT method.

[5] = system: MDA‐MB‐231 breast cancer cells; assay: Cell cycle analysis by flow cytometry (PI), MDA-MB-231; format: cell-based, human; details: 72 h
Description: (§4) In 24‐well plates, cells were introduced at a concentration of 5×10⁵ colonies per plate, and compound 5f was administered at its IC50 concentration for 72 h. The cell cycle phases were evaluated using the Cayman Cell Cycle Phase Determination Kit. Following treatment, applying cold PBS, cells were rinsed, trypsinized, and 5 min of centrifugation at 500 × g. The resulting pellets were resuspended in 250 µL of fixative and held at −20°C for 2 h. After a second centrifugation at 500 × g for 5 min, washing was carried out with PBS and stained with propidium iodide (PI) for 30 min at room temperature. Flow cytometric analysis of the cell cycle was implemented using a BD Accuri C6 flow cytometer, with detection wavelengths ranging from 488 to 650 nm.

Bcl─2 mRNA [6] = assay: qRT-PCR Bcl-2 mRNA in MCF-7; format: cell-based, human; details: MCF-7, IC50 value of 5f, 72 h
Description: as §3

Bcl─2 mRNA [7] = assay: qRT-PCR Bcl-2 mRNA in MDA-MB-231; format: cell-based, human; details: MDA-MB-231, IC50 value of 5f, 72 h
Description: as §3

[8] = system: MCF‐7 breast cancer cells; assay: Cell cycle analysis by flow cytometry (PI), MCF-7; format: cell-based, human; details: 72 h
Description: as §4

Bax mRNA [9] = assay: qRT-PCR Bax mRNA in MCF-7; format: cell-based, human; details: MCF-7, IC50 value of 5f, 72 h
Description: as §3

[10] = system: MDA‐MB‐231 breast cancer cells; assay: DNA fragmentation (Cell Death Detection kit), MDA-MB-231; format: cell-based, human; details: 72 h, p < 0.05
Description: (§5) As an apoptotic signature, DNA fragmentation was evaluated using the Cell Death Detection kit (Sigma). In 96‐well plates, cancerous cells were cultivated at a density of 1×10⁵ cells per well, and compound 5f was applied at its IC50 concentration for 72 h. In brief, 20 µL of cell lysates were transferred to streptavidin‐coated wells preloaded with anti‐DNA antibodies and held at RT for 2 h. Three washes afterward with the provided washing buffer, 2,2‐azino‐di‐(3‐ethylbenzthiazoline sulfonate) diammonium salt was put into every well. Absorbance was determined at 405 nm employing a spectrophotometer.

[11] = system: MCF‐7 breast cancer cells; assay: DNA fragmentation (Cell Death Detection kit), MCF-7; format: cell-based, human; details: 72 h, p < 0.05
Description: as §5

[12] = SI = IC50 for normal cells (MCF-10A)/IC50 for cancer cells

`Cc1n[nH]c(=O)n1NC(=O)c1cc2c(ccc3ccccc32)oc1=O` [Derivative 5a, N‐(3‐Methyl‐5‐oxo‐1,5‐dihydro‐4H‐1,2,4‐triazol‐4‐yl)‐3‐oxo‐3H‐benzo[f]chromene‐2‐carboxamide] showed an IC50 ([1]; Homo sapiens, MCF7, 72 h) of 22.5 ± 1.8 µM, an IC50 ([2]; Homo sapiens, MDA-MB-231, 72 h) of 18.4 ± 1.16 µM and an IC50 ([3]; Homo sapiens, MCF-10A) of 12.5 ± 1 µM.
For `CCc1n[nH]c(=O)n1NC(=O)c1cc2c(ccc3ccccc32)oc1=O` [Derivative 5b, N‐(3‐Ethyl‐5‐oxo‐1,5‐dihydro‐4H‐1,2,4‐triazol‐4‐yl)‐3‐oxo‐3H‐benzo[f]chromene‐2‐carboxamide], the IC50 ([1]; Homo sapiens, MCF7, 72 h) is given as 76.6 ± 2.1 µM, the “apoptotic effect in MCF‐7” value (MCF‐7) is given as “altered the mitochondrial membrane potential in MCF‐7, causing apoptotic cell death” and the IC50 ([2]; Homo sapiens, MDA-MB-231, 72 h) is given as 95.8 ± 2.4 µM. It also gave an IC50 ([3]; Homo sapiens, MCF-10A) of 25.2 ± 1.5 µM.
With `O=C(Nn1c(Cc2ccc(Cl)cc2)n[nH]c1=O)c1cc2c(ccc3ccccc32)oc1=O` [Derivative 5f, N‐(3‐(4‐Chlorobenzyl)‐5‐oxo‐1,5‐dihydro‐4H‐1,2,4‐triazol‐4‐yl)‐3‐oxo‐3H‐benzo[f]chromene‐2‐carboxamide] the IC50 ([1]; Homo sapiens, MCF7, 72 h) was less than 25 µM, the IC50 [1] was 22.1 ± 0.42 µM and the “selectivity index (SI) MCF‐7” value [1, 12] was 2.8. For the same compound, the “Bax mRNA level, upregulated” value (Bax mRNA [4]) was 2.35 fold, the “Cell cycle kinetics, G0/G1” value ([5]; MDA-MB-231, IC50 value of 5f) was 0.8 and the “Cell cycle kinetics, M” value ([5]; MDA-MB-231, IC50 value of 5f) was 20.0. The “Cell cycle kinetics, S” value ([5]; MDA-MB-231, IC50 value of 5f) was 36.6, the “phase of cell cycle block” value ([5]; MDA-MB-231, IC50 value) was “S phase” and the “Bcl─2 mRNA level, downregulated” value (Bcl─2 mRNA [6]) was 2.1 fold. For the same compound, the “Bcl─2 mRNA level, downregulated” value (Bcl─2 mRNA [7]) was 3.1 fold, the “Cell cycle kinetics, M” value ([8]; MCF-7, IC50 value of 5f) was 22.9 and the “Cell cycle kinetics, S” value ([8]; MCF-7, IC50 value of 5f) was 36.1. The “phase of cell cycle block” value ([8]; MCF-7, IC50 value) was “S phase”, the “Bax mRNA level, upregulated” value (Bax mRNA [9]) was 2.35 fold and the DNA fragmentation induction ([10]; MDA-MB-231, 1 µM) was 1.7 fold. For the same compound, the DNA fragmentation induction ([10]; MDA-MB-231, 10 µM) was 2.15 fold, the DNA fragmentation induction ([10]; MDA-MB-231, 50 µM) was 4.15 fold and the IC50 ([2]; Homo sapiens, MDA-MB-231, 72 h) was less than 25 µM. For the same compound, the IC50 [2] was 15.7 ± 0.2 µM, the “selectivity index (SI) MDA‐MB‐231” value [2, 12] was 3.9 and the IC50 ([3]; Homo sapiens, MCF-10A) was 61.9 ± 0.6 µM. It also gave a DNA fragmentation induction ([11]; MCF-7, 1 µM) of 1.65 fold, a DNA fragmentation induction ([11]; MCF-7, 10 µM) of 3 fold and a DNA fragmentation induction ([11]; MCF-7, 50 µM) of 4.1 fold.
Work on `N.N.[Cl][Pt][Cl]` [Cisplatin, cisplatin, reference compound] yielded an IC50 [1] of 9.3 ± 1.2 µM, an IC50 [2] of 8.7 ± 0.6 µM and an IC50 [3] of 12.2 ± 0.8 µM.
`Cc1ccc(Cc2n[nH]c(=O)n2NC(=O)c2cc3c(ccc4ccccc43)oc2=O)cc1` [Derivative 5e, N‐(3‐(4‐Methylbenzyl)‐5‐oxo‐1,5‐dihydro‐4H‐1,2,4‐triazol‐4‐yl)‐3‐oxo‐3H‐benzo[f]chromene‐2‐carboxamide] showed an IC50 ([1]; Homo sapiens, MCF7, 72 h) of 68.9 ± 3.1 µM, an IC50 ([2]; Homo sapiens, MDA-MB-231, 72 h) of 61.7 ± 0.4 µM and an IC50 ([3]; Homo sapiens, MCF-10A) of 40.6 ± 2.1 µM.
`O=C(Nn1c(Cc2ccccc2)n[nH]c1=O)c1cc2c(ccc3ccccc32)oc1=O` [Derivative 5d, N‐(3‐Benzyl‐5‐oxo‐1,5‐dihydro‐4H‐1,2,4‐triazol‐4‐yl)‐3‐oxo‐3H‐benzo[f]chromene‐2‐carboxamide] gave an IC50 ([1]; Homo sapiens, MCF7, 72 h) of 49.8 ± 2.2 µM, an IC50 ([2]; Homo sapiens, MDA-MB-231, 72 h) of 87 ± 2 µM and an IC50 ([3]; Homo sapiens, MCF-10A) of 38.2 ± 0.7 µM.
For `O=C(Nn1c(-c2ccccc2)n[nH]c1=O)c1cc2c(ccc3ccccc32)oc1=O` [Derivative 5c, 3‐Oxo‐N‐(5‐oxo‐3‐phenyl‐1,5‐dihydro‐4H‐1,2,4‐triazol‐4‐yl)‐3H‐benzo[f]chromene‐2‐carboxamide], the IC50 ([1]; Homo sapiens, MCF7, 72 h) was 25.9 ± 0.8 µM, the IC50 ([2]; Homo sapiens, MDA-MB-231, 72 h) was 64 ± 1.4 µM and the IC50 ([3]; Homo sapiens, MCF-10A) was 62.8 ± 0.4 µM.
